Key:
[1] = target: Carbonic anhydrase 3 (Homo sapiens) (UniProt P07451)
Description: Inhibition of human recombinant full length carbonic hydrase 3 by stopped-flow CO2 hydration assay

[2] = target: Carbonic anhydrase 13 (Mus musculus) (UniProt Q9D6N1); assay: Inhibition of mouse recombinant full length carbonic hydrase 13 by stopped-flow CO2 hydration assay
Carbonic anhydrase 13 (Mus musculus), sequence (Q9D6N1 whole entry, looked up): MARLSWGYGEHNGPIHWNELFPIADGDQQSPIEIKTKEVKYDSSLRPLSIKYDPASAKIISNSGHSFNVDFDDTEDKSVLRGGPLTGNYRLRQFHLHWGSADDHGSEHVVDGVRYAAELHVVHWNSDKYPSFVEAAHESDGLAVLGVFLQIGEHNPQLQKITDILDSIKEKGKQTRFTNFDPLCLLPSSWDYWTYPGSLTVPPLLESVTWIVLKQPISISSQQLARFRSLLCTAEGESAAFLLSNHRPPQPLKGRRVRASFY

Carbonic anhydrase 3 (Homo sapiens), sequence (P07451 whole entry): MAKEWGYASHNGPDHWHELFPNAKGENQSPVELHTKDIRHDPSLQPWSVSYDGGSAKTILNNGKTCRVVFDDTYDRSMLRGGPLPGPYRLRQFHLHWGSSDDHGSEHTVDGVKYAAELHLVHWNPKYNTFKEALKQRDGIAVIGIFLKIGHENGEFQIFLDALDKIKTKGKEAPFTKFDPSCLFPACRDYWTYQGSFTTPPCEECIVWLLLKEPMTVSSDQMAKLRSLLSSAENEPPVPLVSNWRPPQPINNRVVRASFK

Row | Compound | Kinact [1] | Ki [2] [nM]
1 | CC(=O)/N=c1/sc(S(N)(=O)=O)nn1C | 7 10^5nM | 
2 | CN(C)c1nnc(CS(N)(=O)=O)s1 | 3.6 10^5nM | 20

Source: ChEMBL document CHEMBL1143129
